Tested on: EpidermFT™ Skin Model (EFT-400) full thickness skin cultures
Experiment: Affymetrix GeneChip HG U133 Plus 2.0 microarray global gene expression, agent-exposed vs untreated skin cultures
Format: cell-based, human
Details: Salicin 0.5% vs Untreated Control, 24 hr; direction down

Structure (SMILES): OCc1ccccc1O[C@@H]1O[C@H](CO)[C@@H](O)[C@H](O)[C@H]1O [Salicin, 2-(Hydroxymethyl)phenyl β-D-glucospyranoside]
- Fold change IDH2 (210045_at): 2.059
- Fold change IL22RA1 (220056_at): 2.023
- Fold change INPP5D (203332_s_at): 2.061
- Fold change ITGA3 (201474_s_at): 2.052
- Fold change JAG1 (209099_x_at): 2.044
- Fold change JAG1 (216268_s_at): 2.123
- Fold change JMJD7 /// JMJD7-PLA2G4B /// PLA2G4B (222256_s_at): 2.101
- Fold change KCNK7 (224055_x_at): 2.127
- Fold change KCTD15 (222668_at): 2.037
- Fold change KIF1B (209234_at): 2.105
- Fold change KIF1B (225878_at): 2.14
- Fold change KLK1 (216699_s_at): 2.169
- Fold change KRT5 (201820_at): 2.154
- Fold change KRT6A (209125_at): 2.034
- Fold change KRT10 (207023_x_at): 2.066
- Fold change KRTCAP3 (235148_at): 2.158
- Fold change LMNA (212089_at): 2.1
- Fold change LMNA (1554600_s_at): 2.053
- Fold change LMNB1 (203276_at): 2.146
- Fold change LOC284837 (1563088_a_at): 2.115
- Fold change LOC286440 (209733_at): 2.16
- Fold change LOC400027 (226413_at): 2.041
- Fold change LOC401233 (1558882_at): 2.002
- Fold change LOC648245 (227739_at): 2.064
- Fold change LOC652968 (233528_s_at): 2.038
- Fold change LOC727820 (227384_s_at): 2.055
- Fold change LOC100128443 /// MAST4 (210958_s_at): 2.131
- Fold change LOC100128822 (235174_s_at): 2.067
- Fold change LOC100130837 (242255_at): 2.078
- Fold change LOC100131262 (1558152_at): 2.081
- Fold change LOC100131851 /// LOC100134497 /// LOC401002 /// LOC646674 /// SSBP3 (222482_at): 2.025
- Fold change LOC100133772 /// SLC16A5 (206600_s_at): 2.044
- Fold change LOC100134937 (229685_at): 2.12
- Fold change LPHN1 (47560_at): 2.092
- Fold change LY75 (205668_at): 2.028
- Fold change LYSMD4 (228954_at): 2.116
- Fold change MAFB (218559_s_at): 2.112
- Fold change MAPRE2 (202501_at): 2.078
- Fold change MEGF9 (212831_at): 2.176
- Fold change MFAP5 (213764_s_at): 2.112
- Fold change MIB2 (226644_at): 2.032
- Fold change MPP7 (238451_at): 2.14
- Fold change MTHFR (226929_at): 2.073
- Fold change MTMR1 (214975_s_at): 2.146
- Fold change MUC1 (213693_s_at): 2.138
- Fold change MYO18A /// TIAF1 (202039_at): 2.04
- Fold change NBEAL2 (212443_at): 2.05
- Fold change NCF2 (209949_at): 2.128
- Fold change NCRNA00086 (238697_at): 2.098
- Fold change PAIP1 (208051_s_at): 2.141
- Fold change PAIP2B (221868_at): 2.043
- Fold change PAWR (204005_s_at): 2.161
- Fold change PAWR (229515_at): 2.15
- Fold change PDIK1L (227255_at): 2.059
- Fold change PERP (217744_s_at): 2.176
- Fold change PIGW (1558292_s_at): 2.085
- Fold change PLEKHA2 (225136_at): 2.159
- Fold change PLS3 (201215_at): 2.167
- Fold change PNMA2 (209598_at): 2.146
- Fold change POLE2 (205909_at): 2.104
- Fold change POLH (231115_at): 2.029
- Fold change POLR3B (219459_at): 2.135
- Fold change POU3F1 (208345_s_at): 2.16
- Fold change PPAP2C (209529_at): 2.033
- Fold change PPP1CB (201409_s_at): 2.054
- Fold change PPP2CA (208652_at): 2.035
- Fold change PRDX2 (39729_at): 2.068
- Fold change PRKX (204061_at): 2.015
- Fold change PTCH1 (209815_at): 2.148
- Fold change PTGFR (1555097_a_at): 2.022
- Fold change PVRL1 (225211_at): 2.08
- Fold change RAB7B (1553982_a_at): 2.095
- Fold change RAPGEFL1 (218657_at): 2.162
- Fold change RHOV (241990_at): 2.107
- Fold change RICS (203431_s_at): 2.143
- Fold change RNF170 (226104_at): 2.034
- Fold change RORA (235567_at): 2.083
- Fold change RPS6KA5 (204633_s_at): 2.051
- Fold change RPS6KB2 (203777_s_at): 2.074
- Fold change SCRN3 (222849_s_at): 2.115
- Fold change SDCCAG8 (243963_at): 2.133
- Fold change SEMA4D (203528_at): 2.021
- Fold change SERPINB1 (213572_s_at): 2.014
- Fold change SETBP1 (227478_at): 2.148
- Fold change SHROOM2 (204967_at): 2.088
- Fold change SLC5A3 (212944_at): 2.165
- Fold change SLC24A3 (219090_at): 2.138
- Fold change SLC45A4 (225598_at): 2.071
- Fold change SLCO3A1 (219229_at): 2.162
- Fold change SMAP2 (225282_at): 2.14
- Fold change SMCR7 (235896_s_at): 2.152
- Fold change SNX21 (1553960_at): 2.031
- Fold change SNX24 (218705_s_at): 2.152
- Fold change SORD (201563_at): 2.01
- Fold change ST8SIA4 (230836_at): 2.021
- Fold change STK24 (208854_s_at): 2.165
- Fold change SYNGR2 (201079_at): 2.14
- Fold change TANC1 (225308_s_at): 2.118
- Fold change TCEA3 (226388_at): 2.034
- Fold change TCHP (223455_at): 2.126
- Fold change TGOLN2 (1554608_at): 2.114
- Fold change THBD (203888_at): 2.109
- Fold change TIMM22 (219184_x_at): 2.067
- Fold change TMC5 (222904_s_at): 2.096
- Fold change TMEM19 (226860_at): 2.032
- Fold change TMEM45A (219410_at): 2.136
- Fold change TMEM50B (225182_at): 2.096
- Fold change TMEM80 (65630_at): 2.031
- Fold change TP53I3 (210609_s_at): 2.13
- Fold change TRAF3IP2 (202987_at): 2.079
- Fold change TRIM2 (202342_s_at): 2.062
- Fold change TTC30B (1554588_a_at): 2.011
- Fold change VPS4B (218171_at): 2.031
- Fold change WNK1 (39313_at): 2.008
